Data: PubChem BioAssay AID2305 (GlaxoSmithKline (GSK), 2010)

tested on: P. falciparum 3D7 growth, pLDH absorbance; experiment: blood-stage malaria parasite growth potency – strain 3D7, dose response (AID 2305)

Question: `c1ccc2[nH]c(CN(Cc3nc4ccccc4[nH]3)Cc3nc4ccccc4[nH]3)nc2c1` was tested. Which IC50 did it give?
Answer: Its IC50 is 670 nM.

Question: How did the IC50 turn out when `c1cc(-c2ccc(CN3CCCC3)cc2)cc(-c2nc3ccccc3[nH]2)c1` was run?
Answer: The IC50 was 690 nM.

Question: Which IC50 does the source give for `O=C(/C=C/c1ccc(-c2nc3ccc(Cl)cc3[nH]2)cc1)NC1CCN(Cc2ccccc2)CC1` here?
Answer: The IC50 was 610 nM.

Question: Which IC50 does the source give for `C#C[C@H]1O[C@@H](n2cnc3c(Nc4cc(Br)cc(C(F)(F)F)c4)ncnc32)[C@H](O)[C@@H]1O` here?
Answer: Its IC50 is 1030 nM.

Question: `Cc1ccc(Cc2cnc(NCCSCc3ccc(CN(C)C)s3)[nH]c2=O)cn1` was tested. Which IC50 did it give?
Answer: Its IC50 is 860 nM.

Question: How did the IC50 turn out when `CCN(CCCN1CCCCC1)c1cc(C)nc(Nc2ccc(C)cc2Br)n1` was run?
Answer: The IC50 was 170 nM.

Question: Which IC50 does the source give for `CCOc1c(CCNCCCCNCCc2ccc3ccccc3c2OCC)ccc2ccccc12` here?
Answer: Its IC50 is 600 nM.

Question: `C=CCn1ccc2c3c(N)nc(N)nc3ccc21` was tested. Which IC50 did it give?
Answer: The IC50 was 70 nM.

Question: Which IC50 does the source give for `CS(=O)(=O)N1CC2(CCN(CCC(NC(=O)/C=C/c3ccccc3)c3ccc(Cl)c(Cl)c3)CC2)c2ccccc21` (centres undefined) here?
Answer: The IC50 was 780 nM.

Question: For `COc1ccc(Cl)cc1NC(=O)Nc1ccc2c(c1)CCN(C1CCC1)CC2`, which IC50 is on record?
Answer: The IC50 was 810 nM.

Question: For `NS(=O)(=O)Cc1cccc(-c2ccnc3ccc(-c4cccc(S(N)(=O)=O)c4)cc23)c1`, which IC50 is on record?
Answer: Its IC50 is 1560 nM.

Question: How did the IC50 turn out when `Cc1nc2nc(N)nc(N)c2c(C)c1Cc1ccccc1I` was run?
Answer: The IC50 was 350 nM.

Question: With `C[C@@H]1CN(c2cnn(Cc3ccc(NC(=O)Nc4cccc(C(F)(F)F)c4)cc3)c(=O)c2Cl)C[C@H](C)N1` as the molecule, how does the IC50 read?
Answer: The IC50 was 940 nM.

Question: Which IC50 does the source give for `N#Cc1ccc2c(c1)CCN(CCC1CCC(NC(=O)Nc3ccncc3)CC1)C2` (centres undefined) here?
Answer: The IC50 was 1130 nM.

Question: For `Brc1cccc(Nc2nccc(Nc3ccc(Oc4ccccc4)cc3)n2)c1`, which IC50 is on record?
Answer: The IC50 was 1010 nM.

Question: How did the IC50 turn out when `NC(N)=NN=C1C=Cc2cccc3cccc1c23` was run?
Answer: Its IC50 is 610 nM.

Question: With `Cc1nc2ccc(/C=C/C(=O)NC3CCC(CCN4CCc5ccc(C#N)cc5CC4)CC3)cc2[nH]1` (centres undefined) as the molecule, how does the IC50 read?
Answer: The IC50 was 1140 nM.

Question: How did the IC50 turn out when `O=C(NCCN1CCCC1)c1ccc(-c2ccc(-c3nc4ccccc4[nH]3)s2)cc1` was run?
Answer: Its IC50 is 940 nM.

Question: With `CNC(=O)c1ccccc1Nc1nc(Nc2ccc(N3CCN(C)CC3)nc2)ncc1C` as the molecule, how does the IC50 read?
Answer: Its IC50 is 1140 nM.

Question: `CC(C)n1c(CC2CCN(CC3CCN(C(=O)/C=C/c4ccc(Cl)c(Cl)c4)CC3)CC2)nc2ccccc21` was tested. Which IC50 did it give?
Answer: The IC50 was 610 nM.

Question: With `Cc1cnc(NCCc2ccc(F)cc2)nc1NCCC(=O)Nc1ccccc1` as the molecule, how does the IC50 read?
Answer: The IC50 was 950 nM.

Question: `COC(=O)c1ccc(CC(C)NCC(O)c2cccc(Br)c2)cc1` (centres undefined) was tested. Which IC50 did it give?
Answer: Its IC50 is 690 nM.

Question: For `Cc1cccc2c(C3CCN(CC4CCC(NC(=O)/C=C/c5ccc(Cl)c(Cl)c5)CC4)CC3)c[nH]c12` (centres undefined), which IC50 is on record?
Answer: Its IC50 is 1030 nM.

Question: With `O=C(NCc1cccc(C(F)(F)F)c1)[C@@H]1CCCN1C(=O)c1ccc(O)c(-c2ccc(Cl)c(Cl)c2)c1` as the molecule, how does the IC50 read?
Answer: The IC50 was 790 nM.

Question: How did the IC50 turn out when `CC(C)c1ccc(CN2CCC(CNC(=O)c3cc(-c4ccccc4F)cs3)C2)cc1` (centres undefined) was run?
Answer: The IC50 was 990 nM.

Question: How did the IC50 turn out when `COc1ccc(CNCc2cccc(-c3cccc(-c4nc5ccccc5[nH]4)c3)c2)cc1` was run?
Answer: Its IC50 is 370 nM.

Question: `COc1ccc2nccc(N3CCC(SCCNCc4ccc5c(n4)NC(=O)CO5)C3)c2n1` (centres undefined) was tested. Which IC50 did it give?
Answer: Its IC50 is 800 nM.

Question: For `Cc1ccc(-c2nnc(Nc3ccc(OCC(N)=O)cc3)c3ccccc23)cc1S(=O)(=O)NCC1CCCO1` (centres undefined), which IC50 is on record?
Answer: Its IC50 is 750 nM.

Question: Which IC50 does the source give for `CCOC(=O)c1ccc(NC(=O)Nc2cccc(-c3ccc(-c4nc5ccc(C(F)(F)F)cc5[nH]4)cc3)c2)cc1` here?
Answer: Its IC50 is 210 nM.

Question: `CN1CCN(c2ccnc3ccc(NC(=O)Cc4ccc(OCc5ccccc5)cc4)cc23)CC1` was tested. Which IC50 did it give?
Answer: The IC50 was 630 nM.

Question: With `CCC(C)c1ccc(NC(=O)C(C)c2ccc([N+](=O)[O-])cc2)cc1` (centres undefined) as the molecule, how does the IC50 read?
Answer: Its IC50 is 180 nM.

Question: With `FC(F)(F)c1ccc2nccc(NN=Cc3cccnc3)c2c1` as the molecule, how does the IC50 read?
Answer: Its IC50 is 630 nM.

Question: `CC1CN=C(Nc2ncc(Cl)cc2Cl)N1` (centres undefined) was tested. Which IC50 did it give?
Answer: The IC50 was 240 nM.

Question: With `CCNc1cc(C(=O)N[C@@H](Cc2cc(F)cc(F)c2)[C@H](O)CNCc2cccc(C(F)(F)F)c2)cc(N2CCCCS2(=O)=O)c1` as the molecule, how does the IC50 read?
Answer: The IC50 was 610 nM.

Question: How did the IC50 turn out when `Cc1cc(N(C)C2CCN(CC3CCCCC3)C2)nc(Nc2ccc(Cl)cc2)n1` (centres undefined) was run?
Answer: Its IC50 is 680 nM.

Question: Which IC50 does the source give for `Cc1onc(-c2c(F)cccc2Cl)c1C(=O)Nc1ccccc1I` here?
Answer: The IC50 was 950 nM.

Question: For `CN1CCN(c2ccnc3ccc(NC(=O)Nc4ccc(Br)cc4)cc23)CC1`, which IC50 is on record?
Answer: Its IC50 is 90 nM.

Question: Which IC50 does the source give for `CNc1nc(NN=Cc2cc([N+](=O)[O-])c(Cl)cc2Cl)nc(Nc2cccc(C(F)(F)F)c2)n1` here?
Answer: The IC50 was 730 nM.

Question: With `Cc1nnsc1C(=O)Nc1cccc(-c2ccc(-c3nc4ccc(C(F)(F)F)cc4[nH]3)cc2)c1` as the molecule, how does the IC50 read?
Answer: The IC50 was 310 nM.

Question: `Cc1ccc(NC(=O)c2ccc(CN3CCCN(CCC(C)C)CC3)cc2)cc1F` was tested. Which IC50 did it give?
Answer: Its IC50 is 610 nM.

Question: How did the IC50 turn out when `CN1CCN(c2ccnc3ccc(NC(=O)Cc4ccc(Br)c5ccccc45)cc23)CC1` was run?
Answer: Its IC50 is 810 nM.

Question: For `CCN(CC)CCNC(=O)c1ccc(Nc2ncc([N+](=O)[O-])c(Nc3ccccc3OC)n2)cc1`, which IC50 is on record?
Answer: The IC50 was 140 nM.

Question: How did the IC50 turn out when `O=C(Nc1cccc(N2CCC(NCc3cnn(-c4cccc(F)c4)c3)CC2)c1)c1ccncc1` was run?
Answer: Its IC50 is 1390 nM.

Question: `COc1cccc(NC(=O)[C@H](C)n2c(=O)[nH]c3ccccc3c2=O)c1` was tested. Which IC50 did it give?
Answer: Its IC50 is 760 nM.

Question: For `COc1ccc2nc(NC3=NC4(c5ccccc5)N=C(Nc5nc6ccc(OC)cc6[nH]5)NC4(c4ccccc4)N3)[nH]c2c1` (centres undefined), which IC50 is on record?
Answer: Its IC50 is 200 nM.

Question: How did the IC50 turn out when `Cc1cc(C(=O)NC2CCN(Cc3ccccc3)CC2)ccc1-c1nc2cc(Cl)c(Cl)cc2[nH]1` was run?
Answer: The IC50 was 960 nM.

Question: With `Oc1ccc(CCNc2nc(NCCCOc3cccc(-c4ccccc4)c3)nc(N3CCNCC3)n2)cc1` as the molecule, how does the IC50 read?
Answer: The IC50 was 1130 nM.

Question: `CCOC(=O)c1ccc(N2CCN(c3cc(Cl)ccc3C)CC2)c(NC(=O)Nc2ccc(Cl)c(Cl)c2)c1` was tested. Which IC50 did it give?
Answer: The IC50 was 580 nM.

Question: `CN1CCCc2ccc(NC(=O)Nc3ccc(-c4ccccc4)cc3)cc2C1` was tested. Which IC50 did it give?
Answer: The IC50 was 380 nM.
